Laboratory results reported in BigSolDB 2.1.

Conditions: in acetone

SMILES: CC[C@H](C)C(=O)O[C@H]1C[C@@H](C)C=C2C=C[C@H](C)[C@H](CC[C@@H]3C[C@@H](O)CC(=O)O3)[C@H]21
- solubility (mole fraction) (278.65 K): 0.00637
- solubility (mole fraction) (283.2 K): 0.00742
- solubility (mole fraction) (288.2 K): 0.00869
- solubility (mole fraction) (293.25 K): 0.0104
- solubility (mole fraction) (298.75 K): 0.0123
- solubility (mole fraction) (303.95 K): 0.0157
- solubility (mole fraction) (308.25 K): 0.0183
- solubility (mole fraction) (313.25 K): 0.0226
- solubility (mole fraction) (318.15 K): 0.0272
- solubility (mole fraction) (322.65 K): 0.0321
